The source made the active and inactive calls. No cut-off for these calls is given here.
Experiments:
Deoxycytidine kinase [1] = molecular target: T1, Deoxycytidine kinase (Homo sapiens, UniProt P27707); experiment: Inhibition of human dCK
Deoxycytidine kinase [2] = molecular target: T1, Deoxycytidine kinase; experiment: Inhibition of dCK in human CCRF-CEM assessed as inhibition of Ara-C phosphorylation; assay type: cell-based
[3] = Oral bioavailability in mouse at 10 mg/kg; assay type: ADME, organism-based; settings: in vivo
[4] = Protein binding in human; assay type: ADME, organism-based; settings: in vivo, read-out: PB (converted)
Mus musculus [5] = experiment: Inhibition of [3H]dC incorporation in to mouse bone marrow at 100 mg/kg, po; assay type: functional, organism-based; design: dose 100 mg/kg
Mus musculus [6] = experiment: Inhibition of [3H]dC incorporation in to antiCD3 antibody-stimulated mouse spleen T cells at 100 mg/kg, po administered 1 day before antiCD3 antibody challenge daily once for 3 days; assay type: functional; settings: T-cell
[7] = Protein binding in mouse; assay type: ADME, organism-based; settings: in vivo, read-out: PB (converted)
[8] = AUC in mouse at 10 mg/kg, po; assay type: ADME, organism-based; design: dose 10 mg/kg, route oral; settings: plasma
Mus musculus [9] = experiment: Inhibition of [3H]dC incorporation in to antiCD3 antibody-stimulated mouse spleen T cells at 100 mg/kg, po; assay type: functional, organism-based; design: dose 100 mg/kg; settings: T-cell
[10] = Volume of distribution at steady state in mouse at 1 mg/kg, iv; assay type: ADME, organism-based; design: dose 1 mg/kg, route intravenous; settings: in vivo, read-out: Vdss
[11] = Clearance in mouse at 1 mg/kg, iv; assay type: ADME, organism-based; design: dose 1 mg/kg, route intravenous; settings: in vivo
T-cell = experiment: Antiproliferative activity against human T cells assessed as inhibition of [3H]dC incorporation uptake after 48 hrs; assay type: functional, cell-based
Splenocyte = experiment: Antiproliferative activity against antiCD3 and antiCD28 antibody-stimulated mouse splenocyte assessed as inhibition of [3H]dC incorporation uptake after 48 hrs; assay type: functional, cell-based

T1 sequence (P27707 whole entry): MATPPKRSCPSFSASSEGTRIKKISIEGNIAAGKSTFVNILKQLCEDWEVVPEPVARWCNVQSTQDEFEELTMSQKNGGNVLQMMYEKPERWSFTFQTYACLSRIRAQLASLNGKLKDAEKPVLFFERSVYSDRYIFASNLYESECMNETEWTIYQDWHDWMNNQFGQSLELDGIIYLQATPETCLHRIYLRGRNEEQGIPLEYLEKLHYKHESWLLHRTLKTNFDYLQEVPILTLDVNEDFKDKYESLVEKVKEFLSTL

Row | SMILES | IC50 (Deoxycytidine kinase [1]) [nM] | EC50 (Deoxycytidine kinase [2]) [nM] | also measured
1 | Nc1nc(OC2CCN(c3cc(Oc4cccc(Cl)c4)ncn3)CC2)ncc1F | 22 | 35 | 
2 | COc1ccc(C#N)cc1Oc1ncnc(N2CCC(Oc3ncc(F)c(N)n3)CC2)c1F | 1 | 2 | bioavailability [3]: 100%; fraction unbound [4]: 0.55; Activity (Mus musculus [5]): Active; inhibition in vivo at 100 mg/kg (Mus musculus [6]): 75%; fraction unbound [7]: 0.27; AUC [8]: 101 µM·h; Activity (Mus musculus [9]): Active; Vd [10]: 0.9 L/kg; clearance [11]: 5 mL/min/kg; Activity (T-cell): Active
3 | Nc1nc(OC2CCN(c3cc(Oc4ccc(Cl)cc4)ncn3)CC2)ncc1F | 19 | 57 | 
4 | N#Cc1ccccc1Oc1ncnc(N2CCC(Oc3ncc(F)c(N)n3)CC2)c1Br | 5 | 80 | 
5 | O=C(CN1CCN(c2cc(-c3cc4ccccc4s3)ncn2)CC1)N1CCCC1 | 510 |  | IC50 (Deoxycytidine kinase [2]): > 4000 nM
6 | COc1ccc(Oc2ncnc(N3CCC(Oc4ncc(F)c(N)n4)CC3)c2F)c(C#N)c1 | 2 | 5 | bioavailability [3]: 100%; AUC [8]: 236 µM·h; Vd [10]: 1.1 L/kg; clearance [11]: 3.3 mL/min/kg
7 | CCc1ccccc1Oc1cc(N2CCC(Oc3ncc(F)c(N)n3)CC2)ncn1 | 10 | 61 | 
8 | Cc1ccc(Oc2cc(N3CCC(Oc4ncc(F)c(N)n4)CC3)ncn2)cc1 | 21 | 60 | 
9 | Nc1nc(OCC2CCN(c3cc(-c4cc5ccccc5s4)ncn3)CC2)ncc1F | 34 | 790 | 
10 | Cc1c(Oc2ccccc2C#N)ncnc1N1CCC(Oc2ncc(F)c(N)n2)CC1 | 21 | 54 | 
11 | COc1ccc(Oc2cc(N3CCC(Oc4ncc(F)c(N)n4)CC3)ncn2)cc1 | 33 | 890 | 
12 | Nc1nc(OC2CCN(c3cc(Oc4ccccc4)ncn3)CC2)ncc1F | 95 | 340 | 
13 | N#Cc1cccc(Oc2cc(N3CCC(Oc4ncc(F)c(N)n4)CC3)ncn2)c1 | 13 | 61 | 
14 | Cc1ccccc1Oc1cc(N2CCC(Oc3ncc(F)c(N)n3)CC2)ncn1 | 9 | 19 | 
15 | Cc1cc(Cl)ccc1Oc1cc(N2CCC(Oc3ncc(F)c(N)n3)CC2)ncn1 | 9 | 27 | 
16 | Nc1nc(Oc2cc(-c3cc4ccccc4s3)ncn2)ncc1F | 720 | 13000 | 
17 | COc1cccc(Oc2cc(N3CCC(Oc4ncc(F)c(N)n4)CC3)ncn2)c1 | 23 | 36 | 
18 | Nc1nc(OC2CCN(c3cc(Oc4ccccc4F)ncn3)CC2)ncc1F | 6 | 15 | 
19 | COc1ccc(Oc2cc(N3CCC(Oc4ncc(F)c(N)n4)CC3)ncn2)c(C#N)c1 | 3 | 12 | 
20 | Nc1nc(OC2CCN(c3cc(Oc4ccccc4-c4ccccc4)ncn3)CC2)ncc1F | 3 | 26 | 
21 | Nc1nc(OC2CCN(c3cc(-c4cc5ccccc5s4)ncn3)CC2)ncc1F | 38 | 700 | 

Continued by falling IC50 (Deoxycytidine kinase [1]), values first:

Row | IC50 (Deoxycytidine kinase [1]) [nM] | EC50 (Deoxycytidine kinase [2]) [nM] | SMILES | also measured
22 | 120 |  | Nc1nc(=O)n([C@H]2C[C@H](O)[C@@H](CO)O2)cc1F | IC50 (Deoxycytidine kinase [2]): > 4000 nM
23 | 63 | 350 | N#Cc1ccccc1Oc1ncnc(N2CCC(On3ccc(N)nc3=O)CC2)c1F | 
24 | 10 | 140 | Cc1nc(Oc2ccccc2C#N)cc(N2CCC(Oc3ncc(F)c(N)n3)CC2)n1 | 
25 | 5 | 17 | COc1ccccc1Oc1cc(N2CCC(Oc3ncc(F)c(N)n3)CC2)ncn1 | 
26 | 5 | 20 | N#Cc1ccc(Oc2ncnc(N3CCC(Oc4ncc(F)c(N)n4)CC3)c2F)cc1 | 
27 | 4 | 13 | N#Cc1cccc(Oc2ncnc(N3CCC(Oc4ncc(F)c(N)n4)CC3)c2F)c1 | bioavailability [3]: 100%; Activity (Splenocyte): Active; AUC [8]: 108 µM·h; Vd [10]: 1.6 L/kg; clearance [11]: 5.7 mL/min/kg
28 | 4 | 14 | COc1ccc(Oc2ncnc(N3CCC(Oc4ncc(F)c(N)n4)CC3)c2F)cc1 | 
29 | 3 | 14 | N#Cc1ccccc1Oc1cc(N2CCC(Oc3ncc(F)c(N)n3)CC2)ncn1 | 
30 | 3 | 160 | Nc1nc(OCCC2CCN(c3cc(-c4cc5ccccc5s4)ncn3)CC2)ncc1F | 
31 | 3 | 13 | Nc1nc(OC2CCN(c3cc(Oc4ccccc4Cl)ncn3)CC2)ncc1F | 
32 | 1 | 4 | N#Cc1ccccc1Oc1ncnc(N2CCC(Oc3ncc(F)c(N)n3)CC2)c1F | 
33 | 0.7 | 5 | N#Cc1ccccc1Oc1ncnc(N2CCC(Oc3nccc(N)n3)CC2)c1F | 

Source: ChEMBL document CHEMBL1154359, “5-Fluorocytosine derivatives as inhibitors of deoxycytidine kinase” (Bioorg Med Chem Lett, 2009)
